Patent publication US20230240293A1, “FUNGICIDAL COMPOSITIONS” (SYNGENTA CROP PROTECTION AG, priority 2020, published 2023)
Numbered stars: 1 amine (or outer) side, 2 acyl side, 3 side chain; on linkers, the order of the positions; unused ones are H or OH. Square brackets hold non-standard residues; d marks the D form. Peptide text beside a SMILES is read from it. ξ: configuration not given here. ξNMeVal(3-OH) = CNC(C(=O)O)C(C)(C)O; NMeF = CN[CH](Cc1ccccc1)C(=O)O; X1 = CCC(C)C(O[*:1])C(=O)[*:2]; NMeV = CN[CH](C(=O)O)C(C)C

Columns and labels:
Botrytis cinerea = test: microbe, parasite or virus in culture; type: cell-based; settings: 72 hours
Source text: (§1) A synergistic effect exists whenever the action of an active ingredient combination is greater than the sum of the actions of the individual components. The action to be expected E for a given active ingredient combination obeys the so-called COLBY formula and can be calculated as follows (COLBY, S.R. “Calculating synergistic and antagonistic responses of herbicide combination”, Weeds, Vol. 15, pages 20-22; 1967): • ppm = milligrams of active ingredient (= a.i.) per liter of spray mixture, • X = % action by active ingredient (A) using p ppm of active ingredient, • Y = % action by active ingredient (B) using q ppm of active ingredient. • According to COLBY, the expected (additive) action of active ingredients (A)+(B) using p+q ppm of active ingredient is • [formula]
A standard description of the liquid culture tests is provided in Example 1.
Mycelia fragments or conidia suspensions of a fungus, prepared either freshly from liquid cultures of the fungus or from cryogenic storage, are directly mixed into nutrient broth. DMSO solutions of the test compound (max. 10 mg/mL) is diluted with 0.025% Tween20 by factor 50 and 10 µL of this solution is pipetted into a microtiter plate (96-well format). […] The test plates are incubated in the dark at 24° C. and 96% relative humidity (rh). The inhibition of fungal growth is determined photometrically and visually after 3 - 7 days, depending on the pathosystem, and percent antifungal activity relative to the untreated check is calculated.
Conidia of the fungus from cryogenic storage were directly mixed into nutrient broth (PDB potato dextrose broth). After placing a DMSO solution of the test compositions into a microtiter plate (96-well format), the nutrient broth containing the fungal spores was added.

Alternaria solani = test: microbe, parasite or virus in culture; type: cell-based
Source text: as §1
The compositions according to the invention are tested for their biological (fungicidal) activity as dimethylsulfoxide (DMSO) solutions using one or more of the following protocols (Examples 1-1 and 1-2). A standard description of the liquid culture tests is provided in Example 1.
Mycelia fragments or conidia suspensions of a fungus, prepared either freshly from liquid cultures of the fungus or from cryogenic storage, are directly mixed into nutrient broth. DMSO solutions of the test compound (max. 10 mg/mL) is diluted with 0.025% Tween20 by factor 50 and 10 µL of this solution is pipetted into a microtiter plate (96-well format). The nutrient broth containing the fungal spores/mycelia fragments is then added to give an end concentration of the tested compound. The test plates are incubated in the dark at 24° C. and 96% relative humidity (rh). […]
Conidia of the fungus from cryogenic storage were directly mixed into nutrient broth (PDB potato dextrose broth). After placing a DMSO solution of the test compositions into a microtiter plate (96-well format) the nutrient broth containing the fungal spores was added.

Q: For `CCC(C)C1NC(=O)C2CCCN2C(=O)C(Cc2ccccc2)N(C)C(=O)C(Cc2ccccc2)NC(=O)C(C(C)C)N(C)C(=O)C(C(C)CC)OC(=O)C(C(C)(C)O)N(C)C(=O)C(CC(C)C)NC(=O)C(C(C)C)N(C)C1=O` (stereo not drawn) [Aureobasidin A] (cyclo([ξNMeVal(3-OH)][X1][NMeV]F[NMeF]PI[NMeV]L); configuration not given here), which “(A) inhibition” value (Botrytis cinerea; Aureobasidin A 0.0025 ppm alone (mefentrifluconazole table)) is on record?
A: 8%

Q: What about the “(A) inhibition” value (Botrytis cinerea; Aureobasidin A 0.0050 ppm alone (mefentrifluconazole table)) of the same compound?
A: 7%

Q: And the “(A) inhibition” value (Botrytis cinerea; Aureobasidin A 0.01 ppm alone (imazalil table))?
A: 27%

Q: And the “(A) inhibition” value (Botrytis cinerea; Aureobasidin A 0.02 ppm alone (fenhexamid table))?
A: 53%

Q: What about the “(A) inhibition” value (Botrytis cinerea; Aureobasidin A 0.02 ppm alone (imazalil table)) of the same compound?
A: 46%

Q: What about the “(A) inhibition” value (Botrytis cinerea; Aureobasidin A 0.0200 ppm alone (mefentrifluconazole table)) of the same compound?
A: 22%

Q: What about the “(A) inhibition” value (Alternaria solani; Aureobasidin A 0.0001 ppm alone, growth determined photometrically after 48 hours) of the same compound?
A: 0%

Q: And the “(A) inhibition” value (Alternaria solani; Aureobasidin A 0.0002 ppm alone, 48 hours)?
A: 11%

Q: What about the “(A) inhibition” value (Alternaria solani; Aureobasidin A 0.0006 ppm alone, 48 hours) of the same compound?
A: 0%

Q: And the “(A) inhibition” value (Alternaria solani; Aureobasidin A 0.0012 ppm alone, 48 hours)?
A: 0%

Q: What about the “(A) inhibition” value (Alternaria solani; Aureobasidin A 0.0025 ppm alone, 48 hours) of the same compound?
A: 0%

Q: And the “(A) inhibition” value (Alternaria solani; Aureobasidin A 0.0050 ppm alone, 48 hours)?
A: 0%

Q: What about the “(A) inhibition” value (Alternaria solani; Aureobasidin A 0.04 ppm alone (fenhexamid table), 48 hours) of the same compound?
A: 40%

Q: How did the inhibition at 0.0156 ppm (Alternaria solani; Alternaria solani, Difenoconazole 0.0156 ppm alone, 48 hours, read-out: (B) inhibition) turn out when `CC1COC(Cn2cncn2)(c2ccc(Oc3ccc(Cl)cc3)cc2Cl)O1` (stereo not drawn) [Difenoconazole, difenoconazole, reference compound] was run?
A: 30%

Q: What about the inhibition at 0.0313 ppm (Alternaria solani; Alternaria solani, Difenoconazole 0.0313 ppm alone, 48 hours, read-out: (B) inhibition) of the same compound?
A: 43%

Q: And the inhibition at 0.0625 ppm (Alternaria solani; Alternaria solani, Difenoconazole 0.0625 ppm alone, 48 hours, read-out: (B) inhibition)?
A: 65%

Q: How did the inhibition at 0.0125 ppm (Botrytis cinerea; Botrytis cinerea, Fenhexamid 0.0125 ppm alone, read-out: (B) inhibition) turn out when `CC1(C(=O)Nc2ccc(O)c(Cl)c2Cl)CCCCC1` [Fenhexamid, fenhexamid, reference compound] was run?
A: 2%

Q: And the inhibition at 0.1 ppm (Alternaria solani; Alternaria solani, Fenhexamid 0.10 ppm alone, 48 hours, read-out: (B) inhibition)?
A: 0%

Q: Which results are given for `C=CCOC(Cn1ccnc1)c1ccc(Cl)cc1Cl` (stereo not drawn) [Imazalil, imazalil, reference compound]?
A: inhibition at 0.0625 ppm (Botrytis cinerea; Botrytis cinerea, Imazalil 0.0625 ppm alone, read-out: (B) inhibition): 5%; inhibition at 0.125 ppm (Botrytis cinerea; Botrytis cinerea, Imazalil 0.1250 ppm alone, read-out: (B) inhibition): 22%

Q: Which “(B) inhibition” value (Botrytis cinerea; Mefentrifluconazole 0.0250 ppm alone) does the source give for `CC(O)(Cn1cncn1)c1ccc(Oc2ccc(Cl)cc2)cc1C(F)(F)F` (stereo not drawn) [Mefentrifluconazole, mefentrifluconazole, reference compound] here?
A: 27%
